The values that follow come from publication PMC7263589, “Integration of phage and yeast display platforms: A reliable and cost effective approach for binning of peptides as displayed on-phage” (PLoS ONE, 2020).

Bridge positions count the residues as written; N and C are the ends. Peptide text beside a SMILES is read from it.

One assay deals with T1, IL-23 (Homo sapiens, UniProt P29460+Q9NPF7).
T1 construct: made in house
T1 sequence (Q9NPF7 20-189): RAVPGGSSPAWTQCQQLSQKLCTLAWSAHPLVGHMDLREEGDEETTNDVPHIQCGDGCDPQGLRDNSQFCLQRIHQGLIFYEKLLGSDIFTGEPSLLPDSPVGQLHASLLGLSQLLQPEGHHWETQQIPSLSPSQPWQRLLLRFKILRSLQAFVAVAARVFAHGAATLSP
T1 sequence (P29460 23-328): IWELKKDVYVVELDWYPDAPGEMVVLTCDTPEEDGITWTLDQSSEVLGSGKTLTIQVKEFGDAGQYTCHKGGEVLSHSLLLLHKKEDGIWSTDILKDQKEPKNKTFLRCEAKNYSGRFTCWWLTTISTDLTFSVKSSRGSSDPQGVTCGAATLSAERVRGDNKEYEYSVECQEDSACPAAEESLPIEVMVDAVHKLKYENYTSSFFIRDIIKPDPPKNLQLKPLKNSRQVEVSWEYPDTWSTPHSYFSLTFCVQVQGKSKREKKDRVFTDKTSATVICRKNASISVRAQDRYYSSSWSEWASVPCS
Nature of the assay: SPR direct binding to captured IL-23-AVI (Biacore T200). To be noted: IL-23-AVI captured on streptavidin chip, 25°C, 50 μl/min, 10 mM HEPES pH 7.5, 150 mM NaCl, 0.005% P20, 3% DMSO, 1:1 binding model, multi-cycle (single cycle kinetics for 23–652 and IL-23R), n = 1, 23–447 an estimate, read-out: ka. The procedure: SPR (Biacore T200, GE Healthcare) was used to determine binding constants of the peptides against IL-23 and their competitiveness to IL-23R. All SPR experiments were performed at 25°C with flow rate of 50 μl/min. Assay buffer used in direct binding experiment was 10 mM HEPES pH 7.5, 150 mM NaCl, 0.005% P20, and 3% DMSO. Assay buffer used in competition experiment was 10 mM HEPES pH 7.5, 150 mM NaCl, 0.005% P20, and 1% BSA. All peptides were reconstituted first in DMSO as 10 mM stocks and then diluted into assay buffer. The proteins used in direct binding and competition SPR are described in S1 Table in S1 File. For direct binding of peptides against IL-23, 2000–9000 RU of IL-23-AVI was captured to streptavidin sensor chips (GE Healthcare, Series S Sensor Chip SA, BR-1005-31). Dilution series with 3-fold increment were prepared for each peptide. Initially, all peptides were tested up to 30 μM. Concentration range for some were then lowered accordingly based on affinity or nuisance behavior at high concentrations. SPR “multi-cycle” type was used for peptides 23–644, 23–437, 23–441, 23–446, and 23–447. Each cycle consisted of 30s of analyte injection and then 60s of buffer flow to monitor dissociation. “Single cycle kinetics” (SCK) type was used for 23–652 due to their long dissociation half-lives. Each SCK cycle consisted of five 60s injections of sample in increasing concentration with a final 600s of dissociation. To study IL-23 and IL-23R interaction, 200–1000 RU of IL-23-AVI and IL-23R-Fc-AVI were captured to streptavidin sensor chip. Dilution series with 3-fold increment of IL-23R-FLAG-HIS and IL-23-HIS were run in SCK cycle type as described above except the final dissociation time were 60-300s. Sensorgrams from the entire titration series for each sample were fitted globally to extract binding kinetics and affinity using Biacore T200 Evaluation Software 2.0 (GE Healthcare) according to a 1:1 binding model. To identify IL-23 binders that can block receptor binding, a competition SPR was established. In each SPR cycle, fresh IL-23R was capture (<1000 RU) by injecting 10 μg/ml of IL-23R-Fc-AVI to a Protein-A flow cell at 10 μl/min flow rate for 30s. Analyte consisted of a mixture of 20 nM of IL-23 protein and a single concentration of peptide was then injected for 30s at 50 μl/min to observe IL-23 binding. Finally, the Protein-A surface was regenerated by 10 mM Glycine pH 1.5 for 30s at 30 μl/min. IL-23 at 20 nM without peptide, “IL-23 only”, was used as control to quantify IL-23 binding without blockage; while “cold” IL-23R was used as a positive control for blockage.

Another assay has as its target T2, IL-23:IL-23R (Homo sapiens, UniProt P29460+Q9NPF7).
T2 construct: made in house
T2 sequence (Q9NPF7 20-189): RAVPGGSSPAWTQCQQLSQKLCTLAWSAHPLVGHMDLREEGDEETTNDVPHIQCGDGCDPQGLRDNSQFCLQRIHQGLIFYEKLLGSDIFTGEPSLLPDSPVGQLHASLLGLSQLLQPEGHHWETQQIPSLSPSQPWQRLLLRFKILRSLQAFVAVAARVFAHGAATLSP
T2 sequence (P29460 23-328 partner): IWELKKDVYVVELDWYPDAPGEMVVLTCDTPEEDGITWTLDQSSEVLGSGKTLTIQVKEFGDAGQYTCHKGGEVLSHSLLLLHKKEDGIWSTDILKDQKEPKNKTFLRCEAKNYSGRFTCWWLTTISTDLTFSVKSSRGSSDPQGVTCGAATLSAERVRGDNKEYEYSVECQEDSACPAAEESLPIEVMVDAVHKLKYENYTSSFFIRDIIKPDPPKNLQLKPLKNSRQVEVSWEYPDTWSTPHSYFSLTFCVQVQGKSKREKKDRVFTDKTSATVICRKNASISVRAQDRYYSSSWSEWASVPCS
Briefly: IL-23:IL-23R protein-protein interaction assay, AlphaLISA. In kind it is biochemical. To be noted: disruption of the complex formed by IL-23 and IL-23R. The protocol:
For AlphaLISA assay, peptides at concentration of 10 mM were dissolved in DMSO and serial 3-fold dilutions were carried out using acoustic technology, dispensing peptides directly into the assay plate (ProxiPlate-384 Plus). The rest of the reagents were dissolved in assay buffer containing 25 mM HEPES pH 7.4, 150 mM NaCl, 0.02% Tween 20 and 0.1% BSA. IL-23-AVI was pre-incubated with peptide at the indicated concentrations for 30 min at room temperature. Then, FLAG-tagged IL-23R was added to the assay mix and incubated at room temperature for 1 hour. This was followed by addition of Streptavidin-coated donor beads and acceptor beads conjugated to anti-FLAG antibody. Final assay concentration of IL-23-AVI and FLAG-IL-23R were 1.5 nM and 3 nM, respectively. The assay plate was incubated for one additional hour at RT and read in an Envision plate reader. For TR-FRET assay, tested compounds were serially diluted in DMSO using an Echo acoustic and dispensed directly into the final assay plate. Final concentration of DMSO in the assay was 1%. Assays were performed by preincubation of the diluted compounds with IL-23R-FLAG for one hour at room temperature in assay buffer containing 25 mM HEPES, 150 mM NaCl, 0.02% Tween 20, 0.1% BSA; pH 7.4. Next, IL-23-AVI was added to the assay mix and incubated for 1 hour at room temperature. Finally, the detection reagents, Europium-labeled streptavidin and Anti-FLAG IgG conjugated to SureLight–Allophycocyanin were added and incubated overnight at room temperature. Then, assay microplates were read and values were collected as the ratio between fluorescence emission at 665 nm and 615 nm (665/615). The final values were expressed as a percentage of the DMSO treated controls. IC50 values were calculated by fitting the normalized data to a four parameter logistic equation.
(In general: Alpha assays give light when donor and acceptor beads are brought close together.)

Regarding `CC(C)C[C@@H]1NC(=O)[C@H](Cc2ccc(O)cc2)NC(=O)[C@H](Cc2ccc(O)cc2)NC(=O)[C@H](CC(C)C)NC(=O)[C@@H](NC(=O)[C@H](CCC(=O)O)NC(=O)[C@@H](N)CC(C)C)CSSC[C@@H](C(=O)N[C@@H](CC(=O)O)C(=O)N[C@@H](CC(N)=O)C(=O)O)NC(=O)[C@H](C(C)C)NC(=O)[C@H](CCCCN)NC(=O)[C@H](Cc2c[nH]c3ccccc23)NC(=O)[C@H](CCCNC(=N)N)NC1=O` [23–447] (H-LECLYYLRWKVCDN-OH; disulfide 3-12), the kon on IL-23 was 48300 M⁻¹ s⁻¹. For the same compound, the “AlphaLISA potency” value on IL-23:IL-23R is listed as “single digit micromolar”.

`CC[C@H](C)[C@H](NC(=O)[C@H](CCCCN)NC(=O)[C@@H](N)CCC(N)=O)C(=O)N[C@H](C(=O)N[C@@H](CCC(N)=O)C(=O)N[C@H]1CSSC[C@@H](C(=O)N[C@@H](CC(C)C)C(=O)N[C@@H](CC(C)C)C(=O)N[C@@H](CC(N)=O)C(=O)N[C@@H](CC(=O)O)C(=O)N[C@H](C(=O)O)C(C)C)NC(=O)[C@@H]2CCCN2C(=O)[C@H](Cc2ccc(O)cc2)NC(=O)[C@H]([C@@H](C)O)NC(=O)[C@H](Cc2c[nH]c3ccccc23)NC(=O)[C@H]([C@@H](C)CC)NC(=O)[C@H]([C@@H](C)CC)NC(=O)[C@H](Cc2ccc(O)cc2)NC(=O)[C@H](C(C)C)NC1=O)[C@@H](C)O` [23–441] (H-QKITQCVYIIWTYPCLLNDV-OH; disulfide 6-15): at IL-23, the kon is 190000 M⁻¹ s⁻¹. Moreover, the “AlphaLISA potency” value on IL-23:IL-23R is given as “single digit micromolar”.

For the compound `CC[C@H](C)[C@H](NC(=O)[C@H](CCC(=O)O)NC(=O)[C@H](CCCCN)NC(=O)[C@@H](NC(=O)[C@@H](N)Cc1ccccc1)[C@@H](C)O)C(=O)N[C@@H](CC(=O)O)C(=O)N[C@@H](CO)C(=O)N[C@@H](Cc1c[nH]c2ccccc12)C(=O)N[C@@H](Cc1c[nH]c2ccccc12)C(=O)N[C@@H](CC(C)C)C(=O)N[C@@H](CO)C(=O)N[C@@H](CC(C)C)C(=O)N[C@@H](CCSC)C(=O)N[C@@H](CO)C(=O)N[C@@H](CO)C(=O)O` [23–437] (H-FTKEIDSWWLSLMSS-OH), at IL-23, the kon was 178000 M⁻¹ s⁻¹. The “AlphaLISA potency” value at IL-23:IL-23R is listed as “single digit micromolar”.
